Experiments:
Histamine H3 receptor [1] = target: Histamine H3 receptor (Rattus norvegicus, UniProt Q9QYN8); assay: Binding potency was determined by displacement of [3H]N-alpha-methyl histamine from histamine H3 receptor of rat cortical membranes
Histamine H3 receptor [2] = target: Histamine H3 receptor (Homo sapiens, UniProt Q9Y5N1); assay: Binding potency was determined by displacement of [3H]N-alpha-methyl histamine from cloned human histamine H3 receptor expressed in C6 cells
Histamine H3 receptor (Homo sapiens, UniProt Q9Y5N1), sequence (Q9Y5N1 whole entry): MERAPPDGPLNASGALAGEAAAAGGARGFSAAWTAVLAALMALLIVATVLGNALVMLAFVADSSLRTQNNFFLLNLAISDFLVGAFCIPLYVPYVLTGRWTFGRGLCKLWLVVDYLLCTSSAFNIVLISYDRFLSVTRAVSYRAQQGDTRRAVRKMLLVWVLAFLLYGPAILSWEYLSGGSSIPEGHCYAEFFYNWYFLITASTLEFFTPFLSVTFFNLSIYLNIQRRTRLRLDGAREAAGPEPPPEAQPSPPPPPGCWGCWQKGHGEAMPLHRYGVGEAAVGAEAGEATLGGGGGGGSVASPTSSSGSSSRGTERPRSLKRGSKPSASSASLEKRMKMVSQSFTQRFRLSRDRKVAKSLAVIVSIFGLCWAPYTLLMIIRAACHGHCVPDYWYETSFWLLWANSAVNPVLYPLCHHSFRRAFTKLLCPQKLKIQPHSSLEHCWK

Histamine H3 receptor (Rattus norvegicus, UniProt Q9QYN8), sequence (Q9QYN8 whole entry): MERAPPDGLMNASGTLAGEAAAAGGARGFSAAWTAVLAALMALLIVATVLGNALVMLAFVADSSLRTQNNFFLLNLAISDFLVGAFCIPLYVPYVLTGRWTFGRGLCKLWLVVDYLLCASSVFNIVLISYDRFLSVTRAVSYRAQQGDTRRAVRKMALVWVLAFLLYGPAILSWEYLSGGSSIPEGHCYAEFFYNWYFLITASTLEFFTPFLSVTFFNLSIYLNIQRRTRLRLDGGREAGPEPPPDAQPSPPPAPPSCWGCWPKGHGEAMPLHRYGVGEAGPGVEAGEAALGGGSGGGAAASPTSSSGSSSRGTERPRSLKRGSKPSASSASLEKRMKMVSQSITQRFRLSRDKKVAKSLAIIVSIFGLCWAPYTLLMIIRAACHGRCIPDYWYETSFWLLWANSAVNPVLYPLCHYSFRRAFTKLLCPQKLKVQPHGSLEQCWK

SMILES: CC1CCCCN1CCc1cc2cc(-c3ccc(C(=O)N4CCOCC4)cc3)ccc2o1 (configuration not stated) [(4-{2-[2-(2-Methyl-piperidin-1-yl)-ethyl]-benzofuran-5-yl}-phenyl)-morpholin-4-yl-methanone]
- Ki (Histamine H3 receptor [1]): 13 nM

SMILES: O=C(c1ccc(-c2ccc3oc(CCN4CCCCC4)cc3c2)nc1)N1CCOCC1 [Morpholin-4-yl-{6-[2-(2-piperidin-1-yl-ethyl)-benzofuran-5-yl]-pyridin-3-yl}-methanone]
- Ki (Histamine H3 receptor [2]): 13 nM

Reference: BindingDB's records for doi:10.1016/j.bmcl.2003.11.032 (Abbott Laboratories, 2004)
